Assay results published in the supplement of paper PMC10307832.

Experiments:
Test in all cases: relative viability (nuclei count vs DMSO), 5 days (fraction); higher = more cells survive
SK-LU-1 = system: SK-LU-1
How it was run: (§1)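 Dosing by pin tool came one day after lung cancer cell lines were seeded in 1536-well plates, using either one drug or a fixed anchor-drug dose plus five library-drug doses (not always all listed) in √10 steps. After 5 days, nuclei were counted on 4× images. Relative viability is treated-well nuclei count divided by vehicle-well nuclei count, and values are medians of duplicate plates.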

LU99A = system: LU99A
How it was run: as §1

NCI-H1975 = system: NCI-H1975
How it was run: as §1

HCC-366 = system: HCC-366
How it was run: as §1

NCI-H1944 = system: NCI-H1944
How it was run: as §1

NCI-H1793 = system: NCI-H1793
How it was run: as §1

COR-L 105 = system: COR-L 105
How it was run: as §1

EPLC-272H = system: EPLC-272H
How it was run: as §1

NCI-H1792 = system: NCI-H1792
How it was run: as §1

UMC-11 = system: UMC-11
How it was run: as §1

NCI-H1915 = system: NCI-H1915
How it was run: as §1

HOP-62 = system: HOP-62
How it was run: as §1

NCI-H358 = system: NCI-H358
How it was run: as §1

NCI-H2085 = system: NCI-H2085
How it was run: as §1

NCI-H2170 = system: NCI-H2170
How it was run: as §1

HCC-78 = system: HCC-78
How it was run: as §1

A-427 = system: A-427
How it was run: as §1

NCI-H1755 = system: NCI-H1755
How it was run: as §1

LCLC-97TM1 = system: LCLC-97TM1
How it was run: as §1

LXF-289 = system: LXF-289
How it was run: as §1

NCI-H460 = system: NCI-H460
How it was run: as §1

LC-2-ad = system: LC-2-ad
How it was run: as §1

Structure (SMILES): C[C@@H]1CN(CC(=O)Nc2ccc3c(c2)Cc2cccc(-c4cc(=O)cc(N5CCOCC5)o4)c2S3)C[C@H](C)O1 + CS(=O)(=O)CCNCc1ccc(-c2ccc3ncnc(Nc4ccc(OCc5cccc(F)c5)c(Cl)c4)c3c2)o1 [Lapatinib] (partner 2 µM)
- relative viability (SK-LU-1; first compound 0.04 µM): 0.869
- relative viability (SK-LU-1; first compound 0.1265 µM): 0.959
- relative viability (SK-LU-1; first compound 0.4 µM): 0.877
- relative viability (SK-LU-1; first compound 4 µM): 0.707
- relative viability (LU99A; first compound 0.04 µM): 0.783
- relative viability (LU99A; first compound 0.1265 µM): 1.15
- relative viability (LU99A; first compound 0.4 µM): 1.08
- relative viability (LU99A; first compound 4 µM): 1.04
- relative viability (NCI-H1975; first compound 0.04 µM): 0.871
- relative viability (NCI-H1975; first compound 0.1265 µM): 0.803
- relative viability (NCI-H1975; first compound 0.4 µM): 0.912
- relative viability (NCI-H1975; first compound 4 µM): 0.754
- relative viability (HCC-366; first compound 0.04 µM): 0.383
- relative viability (HCC-366; first compound 0.1265 µM): 0.974
- relative viability (HCC-366; first compound 0.4 µM): 1.17
- relative viability (HCC-366; first compound 4 µM): 0.824
- relative viability (NCI-H1944; first compound 0.1265 µM): 0.803
- relative viability (NCI-H1944; first compound 0.4 µM): 0.977
- relative viability (NCI-H1944; first compound 4 µM): 0.876
- relative viability (NCI-H1793; first compound 0.04 µM): 0.809
- relative viability (NCI-H1793; first compound 0.1265 µM): 0.743
- relative viability (NCI-H1793; first compound 0.4 µM): 0.734
- relative viability (NCI-H1793; first compound 4 µM): 0.649
- relative viability (COR-L 105; first compound 0.04 µM): 0.28
- relative viability (COR-L 105; first compound 0.1265 µM): 0.302
- relative viability (COR-L 105; first compound 0.4 µM): 0.381
- relative viability (COR-L 105; first compound 4 µM): 0.359
- relative viability (EPLC-272H; first compound 0.04 µM): 0.837
- relative viability (EPLC-272H; first compound 0.1265 µM): 1
- relative viability (EPLC-272H; first compound 0.4 µM): 1.01
- relative viability (EPLC-272H; first compound 4 µM): 0.783
- relative viability (NCI-H1792; first compound 0.04 µM): 0.824
- relative viability (NCI-H1792; first compound 0.1265 µM): 0.832
- relative viability (NCI-H1792; first compound 0.4 µM): 0.856
- relative viability (NCI-H1792; first compound 4 µM): 0.849
- relative viability (UMC-11; first compound 0.04 µM): 0.984
- relative viability (UMC-11; first compound 0.1265 µM): 0.927
- relative viability (UMC-11; first compound 0.4 µM): 1.1
- relative viability (UMC-11; first compound 4 µM): 0.694
- relative viability (NCI-H1915; first compound 0.04 µM): 0.872
- relative viability (NCI-H1915; first compound 0.1265 µM): 0.956
- relative viability (NCI-H1915; first compound 0.4 µM): 1.06
- relative viability (NCI-H1915; first compound 4 µM): 0.785
- relative viability (HOP-62; first compound 0.04 µM): 0.549
- relative viability (HOP-62; first compound 0.1265 µM): 1.01
- relative viability (HOP-62; first compound 0.4 µM): 1.19
- relative viability (HOP-62; first compound 4 µM): 0.953
- relative viability (NCI-H358; first compound 0.04 µM): 0.356
- relative viability (NCI-H358; first compound 0.1265 µM): 0.427
- relative viability (NCI-H358; first compound 0.4 µM): 0.39
- relative viability (NCI-H358; first compound 4 µM): 0.417
- relative viability (NCI-H2085; first compound 0.04 µM): 0.402
- relative viability (NCI-H2085; first compound 0.1265 µM): 0.742
- relative viability (NCI-H2085; first compound 0.4 µM): 0.624
- relative viability (NCI-H2085; first compound 4 µM): 0.58
- relative viability (NCI-H2170; first compound 0.1265 µM): 0.251
- relative viability (NCI-H2170; first compound 0.4 µM): 0.277
- relative viability (NCI-H2170; first compound 4 µM): 0.277
- relative viability (HCC-78; first compound 0.04 µM): 0.64
- relative viability (HCC-78; first compound 0.1265 µM): 0.705
- relative viability (HCC-78; first compound 0.4 µM): 0.702
- relative viability (HCC-78; first compound 4 µM): 0.703
- relative viability (A-427; first compound 0.04 µM): 0.898
- relative viability (A-427; first compound 0.1265 µM): 1.05
- relative viability (A-427; first compound 0.4 µM): 1.18
- relative viability (A-427; first compound 4 µM): 1.01
- relative viability (NCI-H1755; first compound 0.04 µM): 1.1
- relative viability (NCI-H1755; first compound 0.1265 µM): 0.995
- relative viability (NCI-H1755; first compound 0.4 µM): 1
- relative viability (NCI-H1755; first compound 4 µM): 0.932
- relative viability (LCLC-97TM1; first compound 0.1265 µM): 0.851
- relative viability (LCLC-97TM1; first compound 0.4 µM): 0.867
- relative viability (LCLC-97TM1; first compound 4 µM): 0.858
- relative viability (LXF-289; first compound 0.04 µM): 0.879
- relative viability (LXF-289; first compound 0.1265 µM): 0.962
- relative viability (LXF-289; first compound 0.4 µM): 0.904
- relative viability (LXF-289; first compound 4 µM): 0.835
- relative viability (NCI-H460; first compound 0.04 µM): 0.941
- relative viability (NCI-H460; first compound 0.1265 µM): 1.02
- relative viability (NCI-H460; first compound 0.4 µM): 1.04
- relative viability (NCI-H460; first compound 4 µM): 0.799
- relative viability (LC-2-ad; first compound 0.04 µM): 1
- relative viability (LC-2-ad; first compound 0.1265 µM): 0.928
- relative viability (LC-2-ad; first compound 0.4 µM): 0.672
- relative viability (LC-2-ad; first compound 4 µM): 0.875
